Reference: the supplement of paper PMC10307832

Legend:
Test in all cases: relative viability (nuclei count vs DMSO), 5 days (fraction); higher = more cells survive
[1] = compound: C[C@@H](N)c1ccc(C(=O)Nc2ccnc3[nH]ccc23)cc1 + Cc1nc(NC(=O)N2CCC[C@H]2C(N)=O)sc1-c1ccnc(C(C)(C)C(F)(F)F)c1 [Alpelisib] (partner 2 µM)
Outline: (§1)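 Lung cancer cell lines in 1536-well plates were dosed by pin tool the day after seeding, either with one drug alone or with a fixed anchor-drug dose plus five library-drug doses (not always all listed) in √10 steps. After 5 days, cells were fixed and their nuclei stained in one step (final 0.05% Triton X-100, 1% formaldehyde, 1 ug/ml Hoechst), then counted on 4× images. Relative viability is the nuclei count in treated wells divided by that in vehicle wells. Values are medians of duplicate plates.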

[2] = compound: C1CNCCC1C2=CC(=NN2)C3=CC=NC=C3 + O=C(CCCCCCC(=O)Nc1ccccc1)NO [Vorinostat] (partner 1 µM)
Outline: as §1

[3] = compound: C[C@@H](N)c1ccc(C(=O)Nc2ccnc3[nH]ccc23)cc1 + CC(C)C[C@H](NC(=O)[C@H](Cc1ccccc1)NC(=O)c1cnccn1)B(O)O [Bortezomib] (partner 0.002 µM)
Outline: as §1

[4] = compound: C1CNCCC1C2=CC(=NN2)C3=CC=NC=C3 + NC(=O)Nc1cc(-c2cccc(F)c2)sc1C(=O)N[C@H]1CCCNC1 [AZD7762] (partner 0.2 µM)
Outline: as §1

Row | Cell Line | relative viability ([1]; first compound 0.04 µM) | relative viability ([1]; first compound 0.1265 µM) | relative viability ([1]; first compound 0.4 µM) | relative viability ([1]; first compound 1.265 µM) | relative viability ([1]; first compound 4 µM) | relative viability ([2]; first compound 0.08 µM) | relative viability ([2]; first compound 0.8 µM) | relative viability ([2]; first compound 2.53 µM) | relative viability ([2]; first compound 8 µM) | relative viability ([3]; first compound 0.04 µM) | relative viability ([3]; first compound 0.1265 µM) | relative viability ([3]; first compound 0.4 µM) | relative viability ([3]; first compound 1.265 µM) | relative viability ([3]; first compound 4 µM) | relative viability ([4]; first compound 0.8 µM) | relative viability ([4]; first compound 2.53 µM) | relative viability ([4]; first compound 8 µM) | relative viability ([4]; first compound 0.08 µM)
1 | A549 | 0.877 | 0.834 | 0.846 | 0.751 | 0.559 |  |  |  |  |  |  |  |  |  |  |  |  | 
2 | COR-L23 | 0.699 | 0.788 | 0.921 | 0.801 | 0.381 | 0.455 | 0.56 | 0.631 | 0.447 | 0.827 | 0.983 | 1.03 | 0.779 | 0.341 |  |  |  | 
3 | COR-L 105 | 0.876 | 1.07 | 0.918 | 0.957 | 0.65 | 0.805 | 0.916 | 1.07 | 0.964 | 0.826 | 0.732 | 0.791 | 0.469 | 0.649 |  |  |  | 
4 | Calu-6 | 0.958 | 1.01 | 0.904 | 0.765 | 0.797 |  |  |  |  | 0.99 | 1.1 | 0.911 | 0.886 | 0.886 |  |  |  | 
5 | EBC-1 | 0.97 | 0.775 | 0.797 | 0.771 | 0.93 |  |  |  |  | 0.573 | 0.662 | 0.558 | 0.444 | 0.487 |  |  |  | 
6 | IA-LM | 0.83 | 0.999 | 1.09 | 1.11 | 1.06 | 0.974 | 1.06 | 0.95 | 1.03 | 0.977 | 0.87 | 1.08 | 1.07 | 0.677 |  |  |  | 
7 | LK-2 | 1.3 | 1.02 | 1.17 |  | 0.83 | 0.304 | 0.26 | 0.363 | 0.126 |  |  |  |  |  | 0.29 | 0.532 | 0.522 | 
8 | NCI-H358 | 0.846 | 0.739 | 0.821 | 0.767 | 0.73 | 0.492 | 0.654 | 0.907 | 0.617 |  |  |  |  |  | 0.626 | 0.553 | 0.54 | 0.487
9 | NCI-H520 | 0.971 | 0.969 | 1.21 | 1.12 | 1.07 | 0.677 | 0.777 | 0.746 | 0.7 | 0.756 | 0.716 | 0.628 | 0.638 | 0.54 |  |  |  | 
10 | NCI-H522 |  |  |  |  |  | 0.911 | 0.762 | 0.998 | 1.04 |  |  |  |  |  | 0.915 | 0.832 | 0.879 | 0.764
11 | NCI-H661 | 0.77 | 1.05 | 0.914 | 0.157 | 0.634 | 0.745 | 0.845 | 0.804 | 0.78 | 0.739 | 0.844 | 0.94 | 0.76 | 0.737 |  |  |  | 
12 | NCI-H1299 | 1.05 | 1.04 | 0.997 | 0.894 | 0.926 |  |  |  |  | 1.02 | 0.998 | 0.958 | 0.938 | 0.827 |  |  |  | 
13 | NCI-H1563 | 0.958 | 0.995 | 0.985 | 0.971 | 0.918 |  |  |  |  | 0.776 | 0.798 | 0.777 | 0.699 | 0.897 |  |  |  | 
14 | NCI-H1648 |  |  |  |  |  | 0.381 | 0.518 |  | 0.488 |  |  |  |  |  | 0.716 |  | 0.78 | 0.632
15 | NCI-H1650 |  |  |  |  |  | 0.46 | 0.597 | 0.804 | 0.489 | 0.227 | 0.199 | 0.221 | 0.205 | 0.203 |  |  |  | 
16 | NCI-H1703 | 0.332 | 0.382 | 0.345 |  | 0.317 |  |  |  |  | 0.376 | 0.281 | 0.256 |  | 0.236 | 0.104 |  | 0.133 | 
17 | NCI-H1792 | 0.733 | 0.648 | 0.745 | 0.691 | 0.62 |  |  |  |  | 0.955 | 0.983 | 1.02 | 1.03 | 0.797 | 0.675 | 0.632 | 0.717 | 0.616
18 | NCI-H2009 | 1.11 | 1.13 | 1.1 | 0.996 | 0.786 | 0.754 | 0.693 | 0.8 | 0.728 | 0.89 | 0.928 | 0.969 | 0.354 | 0.827 |  |  |  | 
19 | NCI-H2023 | 0.684 | 0.681 | 0.836 | 0.681 | 0.608 | 0.262 | 0.589 | 0.767 | 0.602 | 0.948 | 0.925 | 1.1 | 0.421 | 0.953 |  |  |  | 
20 | NCI-H2228 | 0.822 | 0.824 | 0.934 | 0.766 | 1.01 | 0.537 | 0.589 | 0.667 | 0.587 | 1.42 | 1.18 | 1.31 | 0.932 | 1.01 |  |  |  | 
21 | NCI-H2342 |  |  |  |  |  | 0.706 | 0.71 | 0.774 | 0.809 |  |  |  |  |  | 0.351 | 0.57 | 0.591 | 0.572
22 | SK-LU-1 | 1.03 | 0.973 | 0.986 | 0.888 | 0.704 | 0.783 | 0.766 | 0.857 | 0.729 | 0.886 | 1.54 | 1.01 | 0.753 | 0.743 |  |  |  | 
23 | SK-MES-1 | 1 | 0.986 | 1.01 | 0.786 | 0.834 | 0.979 | 0.978 | 1.22 | 1.07 |  |  |  |  |  |  |  |  | 
24 | SW 900 |  |  |  |  |  | 0.521 |  | 0.684 | 0.563 |  |  |  |  |  |  | 0.718 | 0.738 | 0.687
25 | SW 1573 | 0.852 | 0.984 | 0.832 | 0.563 | 0.509 |  | 0.642 | 1.01 | 0.967 | 1.08 | 1.01 | 0.939 | 0.968 | 0.7 |  |  |  | 
